How the values were obtained:
human recombinant ERβ = molecular target: T1, human recombinant ERβ (Homo sapiens, UniProt Q92731); assay: Fluorescence polarization estrogen receptor (ERFP) binding assay, ERβ; conditions: for Ki: competition with Fluormone ES2, IC50 converted to Ki by Kenakin formula, read-out: FP β-ER Ki; for FP Selectivity: ratio α-ER Ki / β-ER Ki
T1 construct: purchased PanVera (Madison, Wis.)
Description: (§1) A homogeneous mix-and-measure estrogen receptor (ER) binding assay which utilizes fluorescence polarization (FP) technology is used to identify compounds with affinity for the estrogen receptor. Purchased from PanVera (Madison, Wis.), assay reagents include purified human recombinant ERα, human recombinant ERβ, ES2 screening buffer (100 mM potassium phosphate, pH 7.4, 100 μg/mL bovine gamma globulin), and Fluormone™ ES2.
(§2) For competition binding experiments, dilutions of test compounds are prepared at 2× the final assay concentration in 0.2% DMSO in ES2 Screening buffer on TECAN Genosys, and 25 μL compound/well is dispensed into black Costar ½ volume 96-well plates. Dependent upon a lot specific Kd determination, 10-40 nM ERα or 10-40 nM ERβ and 1 nM Fluormone ES2 are then added to these plates in a final assay volume of 50 μL/well. Plates are gently shaken for at least 5 minutes to mix and incubated for at least 1 hr 45 minutes to achieve equilibrium. (Reaction mixtures are stable for up to 5 hours). After centrifugation to remove air bubbles, plates are read on an LJL Analyst or Acquest equipped with Criterion software at the following settings: Fluorescence Polarization Mode; Static Polarizer on Excitation Side; Dynamic Polarizer on Emission Side; Excitation λ=485×/−5 10 nm; Emission λ=520+/−12.5 nm.
(§3) Polarized fluorescence intensity values are collected and subsequently converted electronically to millipolarization (mp) values. Following data reduction and normalization with Excel and/or Prism software, % Ctrl values at the various test concentrations are used to obtain IC50 values via non-linear regression analysis of a four-parameter logistic equation.
(§4) Because ligand depletion is a consideration in this assay (˜40-60% input ES2 is bound in the assay), IC50 values are converted to Ki values through application of the Kenakin formula, as outlined in the reference below, rather than via the more routinely-used Cheng-Prusoff formula.

human recombinant ERα = molecular target: T2, human recombinant ERα (Homo sapiens, UniProt P03372); assay: Fluorescence polarization estrogen receptor (ERFP) binding assay, ERα; conditions: competition with Fluormone ES2; IC50 converted to Ki by Kenakin formula; read-out: FP α-ER Ki
T2 construct: purchased PanVera (Madison, Wis.)
T2 sequence (P03372 1-595): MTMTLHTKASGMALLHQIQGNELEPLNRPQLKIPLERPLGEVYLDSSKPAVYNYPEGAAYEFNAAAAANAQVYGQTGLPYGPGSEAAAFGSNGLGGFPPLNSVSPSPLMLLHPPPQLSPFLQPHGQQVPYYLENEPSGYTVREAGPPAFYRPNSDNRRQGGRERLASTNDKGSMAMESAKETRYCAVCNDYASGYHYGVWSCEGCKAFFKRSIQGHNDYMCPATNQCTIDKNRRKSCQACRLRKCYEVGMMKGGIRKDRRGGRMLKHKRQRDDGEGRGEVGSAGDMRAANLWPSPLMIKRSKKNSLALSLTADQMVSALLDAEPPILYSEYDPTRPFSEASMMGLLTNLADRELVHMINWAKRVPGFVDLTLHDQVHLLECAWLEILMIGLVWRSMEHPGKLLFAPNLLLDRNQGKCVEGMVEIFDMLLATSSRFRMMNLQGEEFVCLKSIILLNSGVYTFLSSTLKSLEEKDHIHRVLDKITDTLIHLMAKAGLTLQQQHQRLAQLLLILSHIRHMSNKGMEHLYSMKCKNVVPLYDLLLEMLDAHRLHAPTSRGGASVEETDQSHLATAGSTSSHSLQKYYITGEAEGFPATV
Description: as §1, §2, §3, §4

βER = molecular target: T3, βER (Homo sapiens, UniProt Q92731); assay: Cell-based assay for ER transcriptional activity (ERE β-gal reporter), βER-transfected 293 cells; conditions: for ERE β-ER Max / EC50: 293 cells transfected with βER and ERE reporter; for ERE β-ER Max: maximal response, unit assumed; for ERE Selectivity: ratio α-ER EC50 / β-ER EC50
T3 construct: expressed in transfected cells; host or cells: 293 cells (Human Embryonic Kidney, ATCC CRL-1573)
T3 sequence (Q92731 54-530 limits assumed): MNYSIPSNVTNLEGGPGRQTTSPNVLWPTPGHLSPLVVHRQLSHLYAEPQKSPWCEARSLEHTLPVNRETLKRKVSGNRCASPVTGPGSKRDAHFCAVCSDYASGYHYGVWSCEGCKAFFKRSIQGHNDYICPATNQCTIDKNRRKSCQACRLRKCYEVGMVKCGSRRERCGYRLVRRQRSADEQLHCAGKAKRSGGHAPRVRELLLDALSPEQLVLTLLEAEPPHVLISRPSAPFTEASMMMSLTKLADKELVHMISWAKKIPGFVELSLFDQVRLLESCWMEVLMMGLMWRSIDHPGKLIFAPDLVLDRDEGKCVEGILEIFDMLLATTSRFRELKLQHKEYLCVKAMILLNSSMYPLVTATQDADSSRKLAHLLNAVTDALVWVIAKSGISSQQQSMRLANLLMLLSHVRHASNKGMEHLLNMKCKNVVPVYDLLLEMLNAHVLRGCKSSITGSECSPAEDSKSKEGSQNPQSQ
Description: (§5) ERs are ligand-dependent transcription factors that bind the promoter regions of genes at a consensus DNA sequence called the estrogen responsive element (ERE). The ER agonist or antagonist activity of a drug was determined by measuring the amount of reporter enzyme activity expressed from a plasmid under the control of an estrogen-responsive element when cells transiently transfected with ER and the reporter plasmid were exposed to drug. These experiments were conducted according to the following methods.
(§6) Estrogen Receptors alpha (αER, Gen Bank accession #M12674), and beta (βER, Gen Bank #X99101 were cloned into the expression vector pSG5 (Stratagene). A trimer of the vitellogenin-gene estrogen response element (vitERE) was synthesized as an oligonucleotide and attached to a beta-globin basal promoter in a construct named pERE3 gal. This response element and promoter were removed from pERE3 gal by digestion with the endonucleases SpeI (filled with Klenow fragment) and HindIII. This blunt/Hind III fragment was cloned into the β-galactosidase (β-gal) enhancer reporter plasmid (pBGALenh, Stratagene). αER and βER plasmids were purified using a the Endo Free Maxi Kit (Qiagen), and the DNA concentration and purity (A260/280 ratio) were determined spectrophotometrically (Pharmacia). Only DNA with A260/280 ratio of 1.8 and a concentration of >1 ug/uL was used for transfections.
(§7) All Transfections are performed in 293 cells (Human Embryonic Kidney cells ATCC #CRL-1573). Cells are grown in DMEM supplemented with 10% FBS, glutamine, sodium pyruvate and penicilin/streptomycin. Cells are grown to 70% confluency and split 1:4.
(§8) • 1. 293 cells are split the night before onto collagen I-coated 150 mm tissue-culture plates (Biocoat, Becton Dickinson #354551) at a density of 60-70% in DMEM Mediatech 17-205-CV) 10% charcoal-stripped FBS (biocell #6201-31). Approximately 1×10^7 cells/plate will yield 70% confluency. • 2. The next morning, 1 hour prior to transfection, the media is changed to fresh DMEM 10% FBS stripped and supplements. • 3. Transfections are performed using the Profection Kit (Promega #E1200). This kit is based on the calcium-phosphate-mediated transfection technique. Reagents are added in sterile polystyrene tubes in the following order:
(§9) Solution A • 15 μg αER or βER • 45 μg Reporter (pBGALenh or ERE3) • 1.5 mL Sterile Water • 186 μL CaCl2 • *Mix gently
(§10) Solution B • 1.5 mL 2× Hank's Buffered Salt Solution • 4. Using a vortex set on low, add solution A to solution B dropwise. The resulting solution should become milky in color. It is important to achieve thorough mixing. The solution is allowed to settle for 30 minutes, then vortexed before adding the solution to cells. • 5. Add the mixture to 150 mm plates dropwise. Mix well by rocking plates back and forth and side to side gently. After an hour, a very fine precipitate should be seen floating on and above cells under 20× magnification. If this precipitate is not observed, the transfection will not be effective. Incubate the cells for 12 hours. Receptor Stimulation: • 1. The day after transfection, cells are washed 2× with calcium- and magnesium-free Mg free PBS containing 1 mM EGTA (pH 7.6). Cells are trypsinized for 2 min with 3 mL of trypsin-EDTA. Trypsin is neutralized with DMEM 10% FCS. Cells are pelleted at 1000×g for 5 min. The cell pellet is then resuspended in 5 mL DMEM plus 2% phenol-red-free FCS supplemented with glutamine, pyruvate, and Penn/Strep. • 2. 50 μl of the resulting cell suspension is plated into each well of 96-well tissue culture dishes (Biocoat B&D #354407) using a multi-channel pipettor. The dishes have been previously loaded with 50 μL of DMSO-solubilized test compounds at twice the test concentration in DMEM. Data reported are either n=4 wells (single poke) and n=2 wells (9-point concentration-response curves). • 3. Cells are incubated overnight at 37° C. in the selected compounds. Reporter Assay: • 1. […]

αER = molecular target: T4, αER (Homo sapiens, UniProt P03372); assay: Cell-based assay for ER transcriptional activity (ERE β-gal reporter), αER-transfected 293 cells; conditions: 293 cells transfected with αER and ERE reporter; for ERE α-ER Max: maximal response, unit assumed; for EC50: read-out: ERE α-ER EC50
T4 construct: expressed in transfected cells; host or cells: 293 cells (Human Embryonic Kidney, ATCC CRL-1573)
T4 sequence (P03372 1-595): T2 sequence (P03372 1-595)
Description: as §5, §6, §7, §8, §9, §10

T1 sequence (Q92731 whole entry): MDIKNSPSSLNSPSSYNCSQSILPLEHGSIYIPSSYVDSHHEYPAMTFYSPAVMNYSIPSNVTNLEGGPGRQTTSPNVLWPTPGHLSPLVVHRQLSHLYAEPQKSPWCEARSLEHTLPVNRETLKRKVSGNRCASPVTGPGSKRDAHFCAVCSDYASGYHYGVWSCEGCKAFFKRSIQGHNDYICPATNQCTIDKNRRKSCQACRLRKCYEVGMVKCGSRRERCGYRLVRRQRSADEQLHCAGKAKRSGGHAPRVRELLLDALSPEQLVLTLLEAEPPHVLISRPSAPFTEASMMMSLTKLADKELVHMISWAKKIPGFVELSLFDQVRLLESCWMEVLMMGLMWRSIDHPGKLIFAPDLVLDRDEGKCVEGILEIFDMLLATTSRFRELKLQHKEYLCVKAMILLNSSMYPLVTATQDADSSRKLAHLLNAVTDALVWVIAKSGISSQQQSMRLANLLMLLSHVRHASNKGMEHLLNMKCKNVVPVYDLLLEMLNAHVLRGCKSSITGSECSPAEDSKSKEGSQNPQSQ

| Structure (SMILES) | Ki (human recombinant ERβ) [nM] | FP Selectivity (human recombinant ERβ) | Ki (human recombinant ERα) [nM] | ERE β-ER Max (βER) [%] | ERE α-ER Max (αER) [%] | EC50 (βER) [nM] | ERE Selectivity (βER) | EC50 (αER) [nM] |
| --- | --- | --- | --- | --- | --- | --- | --- | --- |
| Oc1ccc2c(c1)CCN(c1ccc(Cl)cc1Cl)C2 [Example 13, 2-(2,4-Dichloro-phenyl)-1,2,3,4-tetrahydro-isoquinolin-6-ol] | 32 | 1.8 | 55 | 69 | 89 |  |  |  |
| Oc1ccc(N2CCc3cc(O)ccc3C2)cc1 [Example 1, 2-(4-Hydroxyphenyl)-1,2,3,4-tetrahydroisoquinoline-6-ol] | 375 | 2.7 | 1000 |  |  |  |  |  |
| COc1ccc([N+](=O)[O-])cc1N1CCc2cc(O)ccc2C1 [Example 4, 2-(2-Methoxy-5-nitrophenyl)-1,2,3,4-tetrahydroisoquinolin-6-ol] | 459 | 1.4 | 655 |  |  |  |  |  |
| CSc1ccc(C2c3ccc(O)cc3CCN2c2ccc(O)cc2)cc1 (centres unmarked) [Example 8, 2-(4-Hydroxyphenyl)-1-(4-methylsulfanylphenyl)-1,2,3,4-tetrahydroisoquinolin-6-ol] | 39 | 0.5 | 18 |  |  |  |  |  |
| O=C(c1ccc(O)cc1)N1CCc2ccc(O)cc2C1 [Example 24, (7-Hydroxy-3,4-dihydro-1H-isoquinolin-2-yl)-(4-hydroxy-phenyl)-methanone] | 215 | 3.1 | 660 |  |  |  |  |  |
| Cc1ccc(C2c3ccc(O)cc3CCN2c2ccc(O)cc2)c(C)c1 (centres unmarked) [Example 7, 1-(2,4-Dimethylphenyl)-2-(4-hydroxyphenyl)-1,2,3,4-tetrahydroisoquinolin-6-ol] | 35 | 1.8 | 62 |  |  |  |  |  |
| Oc1ccc(N2CCc3cc(O)ccc3C2Cc2ccccc2)cc1 (centres unmarked) [Example 16, 1-Benzyl-2-(4-hydroxy-phenyl)-1,2,3,4-tetrahydro-isoquinolin-6-ol] | 18 | 0.8 | 15 |  |  |  |  |  |
| O=C(c1ccc(O)cc1)N1CCc2cc(O)ccc2C1 [Example 23, (6-Hydroxy-3,4-dihydro-1H-isoquinolin-2-yl)-(4-hydroxy-phenyl)-methanone] | 229 | 2.9 | 660 |  |  |  |  |  |

The remaining compounds from weak to strong by Ki (human recombinant ERβ), led by results:

| Ki (human recombinant ERβ) [nM] | FP Selectivity (human recombinant ERβ) | Ki (human recombinant ERα) [nM] | ERE β-ER Max (βER) [%] | ERE α-ER Max (αER) [%] | EC50 (βER) [nM] | ERE Selectivity (βER) | EC50 (αER) [nM] | Structure (SMILES) |
| --- | --- | --- | --- | --- | --- | --- | --- | --- |
| 18 | 2.7 | 48 |  |  |  |  |  | Oc1ccc(N2CCc3cc(O)ccc3C2)c(Cl)c1 [Example 2, 2-(2-Chloro-4hydroxyphenyl)-1,2,3,4-tetrahydroisoquinoline-6-ol] |
| 18 | 3.3 | 59 | 51 | 37 | 23 | 43 | 1000 | CCC1c2ccc(O)cc2CCN1c1ccc(O)cc1 (centres unmarked) [Example 15, 1-Ethyl-2-(4-hydroxy-phenyl)-1,2,3,4-tetrahydro-isoquinolin-6-ol] |
| 13 | 4.8 | 62 |  |  |  |  |  | O=[N+]([O-])c1cc(O)ccc1N1CCc2cc(O)ccc2C1 [Example 5, 2-(4-Hydroxy-2-nitrophenyl)-1,2,3,4-tetrahydroisoquinolin-6-ol] |
| 9 | 1.1 | 10 |  |  |  |  |  | CCc1ccc(C2c3ccc(O)cc3CCN2c2ccc(O)cc2)cc1 (centres unmarked) [Example 11, 1-(4-Ethylphenyl)-2-(4-hydroxyphenyl)-1,2,3,4-tetrahydroisoquinolin-6-ol] |
| 8 | 2.2 | 16 | 71 | 113 |  |  |  | Cc1ccccc1C1c2ccc(O)cc2CCN1c1ccc(O)cc1 (centres unmarked) [Example 12, 2-(4-Hydroxyphenyl)-1-o-tolyl-1,2,3,4-tetrahydroisoquinolin-6-ol] |
| 4.9 | 1.6 | 8 |  |  |  |  |  | Oc1ccc(N2CCc3cc(O)ccc3C2c2ccc(C(F)(F)F)cc2)cc1 (centres unmarked) [Example 9, 2-(4-Hydroxyphenyl)-1-(4-trifluoromethylphenyl)-1,2,3,4-tetrahydroisoquinolin-6-ol] |
| 3.5 | 3.5 | 12 |  |  |  |  |  | Cc1ccc(N2CCc3cc(O)ccc3C2c2cccs2)cc1O (centres unmarked) [Example 22, 2-(3-Hydroxy-4-methyl-phenyl)-1-thiophen-2-yl-1,2,3,4-tetrahydro-isoquinolin-6-ol] |
| 1.2 | 2.5 | 3 | 85 | 75 | 0.4 | 3.3 | 1.2 | Cc1ccc(N2CCc3cc(O)ccc3C2c2ccccc2)cc1O (centres unmarked) [Example 20, 2-(3-Hydroxy-4-methyl-phenyl)-1-phenyl-1,2,3,4-tetrahydro-isoquinolin-6-ol] |

— patent US7256201B2, “Selective estrogen receptor-β ligands” (AstraZeneca AB, priority 2000, dated 2007)
